Experimental data: the NIST ThermoML archive (doi:10.1021/acs.jced.5b00256)
± gives the expanded uncertainty stated by the source.

Tests used:
[1] = 101.33 kPa, Liquid, Pycnometric method
[2] = relative permittivity at various frequencies (dimensionless); settings: 100 kPa, Liquid, Frequency=2 MHz, Parallel plate capacitor
[3] = refractive index (Na D-line) (dimensionless); settings: 100 kPa, Liquid, Standard Abbe refractometry
[4] = relative permittivity at various frequencies (dimensionless); xn = mol fraction of the nth substance listed; settings: 100 kPa, Liquid, Frequency=2 MHz, Parallel plate capacitor, x1 = 1
[5] = refractive index (Na D-line) (dimensionless); xn = mol fraction of the nth substance listed; settings: 100 kPa, Liquid, Standard Abbe refractometry, x1 = 1

mass density ([1]; 303.15 K)	relative permittivity ([2]; 303.15 K)	relative permittivity ([2]; 313.15 K)	relative permittivity ([2]; 323.15 K)	relative permittivity ([2]; 333.15 K)	refractive index ([3]; 303.15 K)	refractive index ([3]; 313.15 K)	refractive index ([3]; 323.15 K)	refractive index ([3]; 333.15 K)	mass density ([1]; 313.15 K)	mass density ([1]; 323.15 K)	mass density ([1]; 333.15 K)	relative permittivity ([4]; 303.15 K)	relative permittivity ([4]; 313.15 K)	relative permittivity ([4]; 323.15 K)	relative permittivity ([4]; 333.15 K)	refractive index ([5]; 303.15 K)	refractive index ([5]; 313.15 K)	refractive index ([5]; 323.15 K)	refractive index ([5]; 333.15 K)	Structure (SMILES)
1467.6 ± 6.1 kg/m3	7.01 ± 0.6	6.85 ± 0.6	6.74 ± 0.6	6.6 ± 0.6	1.56 ± 0.002	1.558 ± 0.002	1.553 ± 0.002	1.55 ± 0.002	–	–	–	–	–	–	–	–	–	–	–	COc1cccc(Br)c1 [1-bromo-3-methoxybenzene]
793.9 ± 6 kg/m3	19.49 ± 0.6	18.53 ± 0.6	17.59 ± 0.6	16.03 ± 0.6	1.383 ± 0.002	1.38 ± 0.002	1.376 ± 0.002	1.371 ± 0.002	791.7 ± 6 kg/m3	784.4 ± 6 kg/m3	775.6 ± 6 kg/m3	–	–	–	–	–	–	–	–	CCCO [propan-1-ol]
–	–	–	–	–	–	–	–	–	–	–	–	19.49 ± 0.6	18.53 ± 0.6	17.59 ± 0.6	16.03 ± 0.6	1.383 ± 0.002	1.38 ± 0.002	1.376 ± 0.002	1.371 ± 0.002	CCCO [propan-1-ol] + COc1cccc(Br)c1
